# Data reported in patent publication US8722910B2, “Diyne compositions” (Evolva AG, priority 2009, dated 2014).
# Where “and” joins values, the source holds several entries; their conditions need not be identical. Equal values may be shown once.
# Legend:
# C. neoformans = assay: Susceptibility of clinical isolates (MIC, broth dilution); type: cell-based; conditions: C. neoformans (n = 18)
# Experimental: (§1) The efficacy of compound IV″ was investigated on 563 clinical isolates of 33 human fungal pathogens. […] For species with n≧10, the MIC90 (MIC, minimal inhibitory concentration) is given as ng/ml. For species with n≦10, the MIC range is given as ng/ml. 24 h and 48 h reads are indicated (Table 1).
# Fonsecaea pedrosi = assay: as above; type: cell-based; conditions: Fonsecaea pedrosi (n = 4)
# Experimental: as §1
# Fusarium solani = assay: as above; type: cell-based; conditions: Fusarium solani (n = 10)
# Experimental: as §1
# Phialophora verrucosa = assay: as above; type: cell-based; conditions: Phialophora verrucosa (n = 4)
# Experimental: as §1
# Sporothrix schenckii = assay: as above; type: cell-based; conditions: Sporothrix schenckii (n = 10)
# Experimental: as §1
# Zygomycetes = assay: as above; type: cell-based; conditions: Zygomycetes (n = 20)
# Experimental: as §1
# CYP1A = assay: Inhibition of cytochrome P450 enzymes; type: in vitro ADME; conditions: human, probe ethoxyresorufin; substrate ethoxyresorufin
# Experimental: (§2) Peak areas corresponding to the metabolite of each substrate were recorded. The percent of control activity was then calculated by comparing the peak area obtained in the presence of the diyne potassium salt and in the absence.
# CYP3A = assay: Inhibition of cytochrome P450 enzymes; type: in vitro ADME; conditions: human
# Experimental: as §2
# Cytochrome P450 1A = assay: Inhibition of cytochrome P450 enzymes; type: in vitro ADME; conditions: substrate ethoxyresorufin; 10 μM
# Experimental: as §2
# Cytochrome P450 2B6 = Cytochrome P450 2B6 (Homo sapiens, UniProt P20813); assay: Inhibition of cytochrome P450 enzymes; type: in vitro ADME; conditions: substrate bupropion
# Experimental: as §2
# Cytochrome P450 2C19 = Cytochrome P450 2C19 (Homo sapiens, UniProt P33261); assay: Inhibition of cytochrome P450 enzymes; type: in vitro ADME; conditions: substrate omeprazole
# Experimental: as §2
# Cytochrome P450 2C8 = Cytochrome P450 2C8 (Homo sapiens, UniProt P10632); assay: Inhibition of cytochrome P450 enzymes; type: in vitro ADME; conditions: substrate paclitaxel
# Experimental: as §2
# Cytochrome P450 2C9 = Cytochrome P450 2C9 (Homo sapiens, UniProt P11712); assay: Inhibition of cytochrome P450 enzymes; type: in vitro ADME; conditions: substrate diclofenac
# Experimental: as §2
# Cytochrome P450 2D6 = Cytochrome P450 2D6 (Homo sapiens, UniProt P10635); assay: Inhibition of cytochrome P450 enzymes; type: in vitro ADME; conditions: substrate dextromethorphan
# Experimental: as §2
# Cytochrome P450 3A = assay: Inhibition of cytochrome P450 enzymes; type: in vitro ADME; conditions: 10 μM
# Experimental: as §2
# S. cerevisiae = assay: Doubling times of S. cerevisiae; type: cell-based
# Experimental: S. cerevisiae was cultured in the presence of 1 and 10 μg/ml of the potassium salt, 10 μg/ml oleic acid and 1 μg/ml of the potassium salt combined with 10 μg/ml oleic acid.
# When S. cerevisiae was cultured in the presence of 1 and 10 μg/ml compound IV″, the doubling times increased to 2.4 h and 4.2 h, respectively, compared to 2 h for the untreated control. The addition of 10 μg/ml oleic acid, sodium salt, to 1 μg/ml compound IV″ reversed the doubling time to 2 h as observed for the untreated control or 10 μg/ml oleic acid, sodium salt alone.
# OLE1 = OLE1 expression by real time PCR; type: cell-based, S. cerevisiae
# Experimental: The expression of OLE1 was determined by real time PCR 10, 60, 120 and 240 min after compound addition (Knechtle, P. and Greve, K., 2009). OLE1 transcript levels were calibrated to the expression of the tubulin gene (TUB1) and normalized to the OLE1 expression at 10 min without compound addition (FIG. 17(a)).
# The expression of the OLE1 gene was determined by real time PCR 10, 60, 120 and 240 min for the conditions a.-e., as indicated in Table 3 above. OLE1 transcript levels were calibrated to the expression of the tubulin gene (TUB1) and normalized to the OLE1 expression at 10 min without compound addition. See FIG. 17a showing time dependent expressions of OLE1 in response to compound IV″. Conditions a.-e. are listed in Table 3 above, numbers indicate time intervals in minutes. Expressions of OLE1 are given as multiples of the expression at 10 min, condition a. […] 10 μg/ml oleic acid compensated for the OLE1 expression increase caused by 1 μg/ml compound IV alone. Compound IV″ dependent up-regulation of OLE1 expression thus confirms that compound IV″ is acting as an inhibitor of the Ole1 protein. The antagonistic effect of oleic acid found in the susceptibility assays, is reflected mechanistically in this experiment by a down-regulation of the target Ole1 protein through oleic acid.
# Candida albicans = assay: In vitro antifungal activity vs. yeasts (MIC/MFC); type: cell-based; conditions: Candida albicans (n = 8)
# C. lipolytica = assay: In vitro antifungal activity vs. yeasts (MIC/MFC); type: cell-based; conditions: Yarrowia lipolytica, C. lipolytica (n = 1)
# C. krusei = assay: In vitro antifungal activity vs. yeasts (MIC/MFC); type: cell-based; conditions: Pichia kudriavzevii, C. krusei (n = 1)
# Malassezia furfur = assay: In vitro antifungal activity vs. yeasts (MIC/MFC); type: cell-based; conditions: Malassezia furfur (n = 1)
# all Candida strains = assay: MIC range over all Candida strains tested; type: cell-based; conditions: Table 13 strains
# C. albicans = assay: Effect on the morphology of growing Candida albicans cultures; type: cell-based; conditions: inhibiting concentrations
# [1] = Solubility in water (incremental addition, 50° C.); type: physicochemical; conditions: 10 mg, water added up to 50 μl
# Experimental: Solubility in water was determined. This was carried out by transferring 10 mg of the material into 1.5 ml HPLC vials. Then 10 μl (1 vol) of water was added. The sample was then isothermally held at 50° C. with stirring for 30 mins. The process was continued up to 50 μl by 10 μl increments with heating to 50° C. in between.
# [2] = 90% inhibition endpoint, read-out: MIC
# Sequence of Cytochrome P450 2C19 (P33261 whole entry): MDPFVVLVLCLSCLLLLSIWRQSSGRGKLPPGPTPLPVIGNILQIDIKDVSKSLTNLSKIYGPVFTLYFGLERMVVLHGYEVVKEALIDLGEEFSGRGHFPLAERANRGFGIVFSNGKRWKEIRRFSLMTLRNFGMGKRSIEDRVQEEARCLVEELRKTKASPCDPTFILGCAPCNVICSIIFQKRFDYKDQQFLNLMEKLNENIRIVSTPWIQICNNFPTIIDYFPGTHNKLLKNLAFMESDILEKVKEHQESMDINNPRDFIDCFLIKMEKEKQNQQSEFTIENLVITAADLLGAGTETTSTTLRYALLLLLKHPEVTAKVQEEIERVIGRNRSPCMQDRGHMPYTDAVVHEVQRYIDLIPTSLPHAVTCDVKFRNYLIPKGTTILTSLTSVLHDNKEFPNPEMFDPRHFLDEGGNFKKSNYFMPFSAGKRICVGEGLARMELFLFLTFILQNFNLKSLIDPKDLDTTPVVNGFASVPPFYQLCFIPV
# Sequence of Cytochrome P450 2B6 (P20813 whole entry): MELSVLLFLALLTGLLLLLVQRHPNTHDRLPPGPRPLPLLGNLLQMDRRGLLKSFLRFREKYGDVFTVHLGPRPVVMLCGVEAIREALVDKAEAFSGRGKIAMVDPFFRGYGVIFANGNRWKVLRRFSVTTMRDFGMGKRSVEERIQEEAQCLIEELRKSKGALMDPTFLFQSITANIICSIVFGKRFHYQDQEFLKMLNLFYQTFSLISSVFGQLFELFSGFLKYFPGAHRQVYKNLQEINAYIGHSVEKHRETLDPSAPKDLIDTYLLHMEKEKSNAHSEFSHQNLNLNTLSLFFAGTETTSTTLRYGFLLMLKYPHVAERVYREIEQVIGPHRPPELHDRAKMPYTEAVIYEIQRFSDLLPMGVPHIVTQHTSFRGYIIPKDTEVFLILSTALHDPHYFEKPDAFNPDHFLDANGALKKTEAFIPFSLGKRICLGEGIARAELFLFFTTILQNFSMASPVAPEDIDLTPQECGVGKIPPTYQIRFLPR
# Sequence of Cytochrome P450 2C9 (P11712 whole entry): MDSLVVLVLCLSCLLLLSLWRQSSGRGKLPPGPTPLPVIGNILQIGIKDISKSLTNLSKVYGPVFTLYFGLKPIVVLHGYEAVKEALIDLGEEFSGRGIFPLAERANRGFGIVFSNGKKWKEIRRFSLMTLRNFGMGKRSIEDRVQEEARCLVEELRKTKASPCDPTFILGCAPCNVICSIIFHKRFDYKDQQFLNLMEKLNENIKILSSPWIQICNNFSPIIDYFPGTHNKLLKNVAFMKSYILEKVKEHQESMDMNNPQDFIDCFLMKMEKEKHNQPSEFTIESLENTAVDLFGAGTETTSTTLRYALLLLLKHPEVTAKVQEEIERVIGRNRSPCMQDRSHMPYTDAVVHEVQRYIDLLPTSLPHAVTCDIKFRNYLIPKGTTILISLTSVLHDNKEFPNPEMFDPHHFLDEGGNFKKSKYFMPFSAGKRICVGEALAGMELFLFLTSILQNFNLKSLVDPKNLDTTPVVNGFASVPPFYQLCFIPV
# Sequence of Cytochrome P450 2D6 (P10635 whole entry): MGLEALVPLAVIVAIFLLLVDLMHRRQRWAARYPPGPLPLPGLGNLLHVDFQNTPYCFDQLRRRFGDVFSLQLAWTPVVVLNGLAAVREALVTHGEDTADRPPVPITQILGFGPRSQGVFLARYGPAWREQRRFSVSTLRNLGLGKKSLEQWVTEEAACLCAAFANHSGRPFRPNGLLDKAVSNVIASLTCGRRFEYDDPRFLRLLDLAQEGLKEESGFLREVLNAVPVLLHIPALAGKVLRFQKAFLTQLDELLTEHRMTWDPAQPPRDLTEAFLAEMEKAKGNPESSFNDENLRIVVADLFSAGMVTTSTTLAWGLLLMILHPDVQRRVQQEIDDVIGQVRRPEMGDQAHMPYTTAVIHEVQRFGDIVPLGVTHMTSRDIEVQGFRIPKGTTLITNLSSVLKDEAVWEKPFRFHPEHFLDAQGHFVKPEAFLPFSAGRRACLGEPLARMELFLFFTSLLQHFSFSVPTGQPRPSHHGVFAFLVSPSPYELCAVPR
# Sequence of Cytochrome P450 2C8 (P10632 whole entry): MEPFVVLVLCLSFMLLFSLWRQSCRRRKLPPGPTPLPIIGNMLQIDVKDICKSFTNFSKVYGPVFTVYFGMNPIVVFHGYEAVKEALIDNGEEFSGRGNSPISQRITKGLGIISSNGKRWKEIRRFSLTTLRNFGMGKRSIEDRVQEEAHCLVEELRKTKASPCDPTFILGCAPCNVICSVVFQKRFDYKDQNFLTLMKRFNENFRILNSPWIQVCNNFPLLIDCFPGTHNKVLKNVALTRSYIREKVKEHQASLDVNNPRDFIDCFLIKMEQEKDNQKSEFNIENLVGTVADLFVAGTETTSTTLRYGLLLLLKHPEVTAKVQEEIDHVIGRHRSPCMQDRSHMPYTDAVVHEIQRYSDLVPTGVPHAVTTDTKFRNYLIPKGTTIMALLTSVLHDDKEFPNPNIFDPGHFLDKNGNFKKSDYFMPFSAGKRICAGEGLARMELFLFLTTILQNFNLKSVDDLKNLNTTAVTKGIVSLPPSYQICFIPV
smiles,measurement,setting,value
"O=C([O-])CCCCCCC/C=C\C#CC#Cc1ccco1.[K+] [Compound IV″, potassium (Z)-14-(furan-2-yl)tetradeca-9-en-11,13-diynoate]",MIC90/MIC range 48 h,C. neoformans,2000 ng/mL
same,MIC90/MIC range 48 h,Fonsecaea pedrosi,80 to 2560 ng/mL
same,MIC90/MIC range 48 h,Fusarium solani,>64000 ng/mL
same,MIC90/MIC range 48 h,Phialophora verrucosa,40 to 640 ng/mL
same,MIC90/MIC range 48 h,Sporothrix schenckii,32 to 5120 ng/mL
same,MIC90/MIC range 48 h,Zygomycetes,16000 ng/mL
same,IC50,CYP1A,59 µM
same,IC50,"CYP3A; probe midazolam, substrate midazolam",45 µM
same,IC50,"CYP3A; probe testosterone, substrate testosterone",57 µM
same,% control at 10 μM,Cytochrome P450 1A,92%
same,IC50,Cytochrome P450 2B6,24 µM
same,% control at 10 μM,Cytochrome P450 2B6; 10 μM,82%
same,IC50,Cytochrome P450 2C19,32 µM
same,% control at 10 μM,Cytochrome P450 2C19; 10 μM,84%
same,IC50,Cytochrome P450 2C8,> 100 µM
same,% control at 10 μM,Cytochrome P450 2C8; 10 μM,84%
same,IC50,Cytochrome P450 2C9,18 µM
same,% control at 10 μM,Cytochrome P450 2C9; 10 μM,74%
same,IC50,Cytochrome P450 2D6,> 100 µM
same,% control at 10 μM,Cytochrome P450 2D6; 10 μM,88%
same,% control at 10 μM,Cytochrome P450 3A; substrate midazolam,85%
same,% control at 10 μM,Cytochrome P450 3A; substrate testosterone,90%
same,Doubling time,S. cerevisiae; 1 μg/ml,2.4 h
same,Doubling time,S. cerevisiae; 1 μg/ml combined with 10 μg/ml oleic acid,2 h and 2.1 h
same,Doubling time,S. cerevisiae; 10 μg/ml,4.2 h
same,increase of the expression level of OLE1,"OLE1; 1 μg/ml, 10-240 min",3-5 fold
same,increase of the expression level of OLE1,"OLE1; 1 μg/ml, at 120 min",4.9 fold
same,increase of the expression level of OLE1,"OLE1; 10 μg/ml, 10-240 min",7-19 fold
same,increase of the expression level of OLE1,"OLE1; 10 μg/ml, at 120 min",18.7 fold
O=C(O)CCCCCCC/C=C\C#CC#Cc1ccco1 [Compound III″],MFC,Candida albicans,< 0.06 ng/mL
same,MIC,Candida albicans; 90% inhibition endpoint,< 0.06 ng/mL
same,MFC,C. lipolytica,< 0.06 ng/mL
same,MIC,C. lipolytica; [2],< 0.06 ng/mL
same,MFC,C. krusei,1 ng/mL
same,MIC,C. krusei; 90% inhibition endpoint,0.5 ng/mL
same,MFC,Malassezia furfur,< 0.06 ng/mL
same,MIC,Malassezia furfur; [2],< 0.06 ng/mL
same,MIC range for all Candida strains,all Candida strains,<0.06 to 4000 ng/mL
same,effect on hyphal tube formation,C. albicans; microscopy,prevented hyphal tube formation
same,effect on cell growth,C. albicans; microscopy and MTT,"fungicidal, totally preventing cell growth"
same,solubility in water,[1],still did not dissolve
